Results as given in ChEMBL document CHEMBL3885861, “Open TG-GATES”.

Species: Rattus norvegicus
Experiment: Open TG-GATES - Regimen: Single
Assay type: toxicity, organism-based, Sprague-Dawley
Set-up: regimen Single, gender Male, age 6 weeks
Conditions: in vivo, po, route gavage; for APTT / Bas / Eos / Fbg / Hb / Ht / Lym / MCHC / MCV / Mono / Neu / PT / Plat / RBC / Ret / WBC: tissue Blood; for KIDNEY_L / KIDNEY_R / KIDNEY_TOTAL: tissue Kidney; for LIVER: tissue Liver
[1] = 100 mg/kg, 3 h, tissue Plasma, dose level Low
[2] = 100 mg/kg, 6 h, tissue Plasma, dose level Low
[3] = 100 mg/kg, 9 h, tissue Plasma, dose level Low
[4] = 100 mg/kg, 24 h, dose level Low
[5] = 100 mg/kg, 24 h, tissue Plasma, dose level Low
[6] = 300 mg/kg, 3 h, dose level Middle

`CN(C)C(=N)N=C(N)N` [METFORMIN] showed an APTT (100 mg/kg, 3 h, dose level Low) of 16 s, a Bas (100 mg/kg, 3 h, dose level Low) of 0% and an Eos (100 mg/kg, 3 h, dose level Low) of 0.8%. For the same molecule, the Fbg (100 mg/kg, 3 h, dose level Low) was 241.8 mg/dL, the Hb (100 mg/kg, 3 h, dose level Low) was 13.2 g/dL and the Ht (100 mg/kg, 3 h, dose level Low) was 39.9%. For the same molecule, the Lym (100 mg/kg, 3 h, dose level Low) was 77.2%, the MCHC (100 mg/kg, 3 h, dose level Low) was 33.1% and the MCV (100 mg/kg, 3 h, dose level Low) was 65.8 fL. The Mono (100 mg/kg, 3 h, dose level Low) was 3.4%, the Neu (100 mg/kg, 3 h, dose level Low) was 18.2% and the PT (100 mg/kg, 3 h, dose level Low) was 12.3 s. For the same molecule, the Plat (100 mg/kg, 3 h, dose level Low) was 118.9 x10_4/uL, the RBC (100 mg/kg, 3 h, dose level Low) was 607.2 x10_4/ul and the Ret (100 mg/kg, 3 h, dose level Low) was 10%. It also gave a WBC (100 mg/kg, 3 h, dose level Low) of 81.3 x10_2/uL, a KIDNEY_L (100 mg/kg, 3 h, dose level Low) of 0.9 g and a KIDNEY_R (100 mg/kg, 3 h, dose level Low) of 0.8 g. It also gave a KIDNEY_TOTAL (100 mg/kg, 3 h, dose level Low) of 1.7 g, an LIVER (100 mg/kg, 3 h, dose level Low) of 8.3 g and an ALP [1] of 1250.2 IU/L. For the same molecule, the AST [1] was 72.4 IU/L, the BUN [1] was 8.4 mg/dL and the CRE [1] was 0.2 mg/dL. For the same molecule, the Ca [1] was 11.2 mg/dL, the Cl [1] was 105.2 meq/L and the DBIL [1] was 0.008 mg/dL. The GLC [1] was 168.4 mg/dL, the IP [1] was 8.7 mg/dL and the K [1] was 4.3 meq/L. The LDH [1] was 62.6 IU/L, the Na [1] was 139.4 meq/L and the PL [1] was 135.8 mg/dL. It also gave an RALB [1] of 2.5 g/dL, a TBIL [1] of 0.042 mg/dL and a TC [1] of 83.6 mg/dL. The TG [1] was 54.6 mg/dL, the TP [1] was 5.1 g/dL and the gamma-GTP [1] was 1.2 IU/L. It also gave a TERMINAL_BW (100 mg/kg, 6 h, dose level Low) of 200.6 g, an APTT (100 mg/kg, 6 h, dose level Low) of 16 s and a Bas (100 mg/kg, 6 h, dose level Low) of 0%. It also gave an Eos (100 mg/kg, 6 h, dose level Low) of 0.8%, a Fbg (100 mg/kg, 6 h, dose level Low) of 249 mg/dL and a Hb (100 mg/kg, 6 h, dose level Low) of 12.8 g/dL. The Ht (100 mg/kg, 6 h, dose level Low) was 38.8%, the Lym (100 mg/kg, 6 h, dose level Low) was 75.2% and the MCHC (100 mg/kg, 6 h, dose level Low) was 33%. The MCV (100 mg/kg, 6 h, dose level Low) was 63.6 fL, the Mono (100 mg/kg, 6 h, dose level Low) was 3.4% and the Neu (100 mg/kg, 6 h, dose level Low) was 19.6%. It also gave a PT (100 mg/kg, 6 h, dose level Low) of 12.4 s, a Plat (100 mg/kg, 6 h, dose level Low) of 125.3 x10_4/uL and an RBC (100 mg/kg, 6 h, dose level Low) of 610.4 x10_4/ul. The Ret (100 mg/kg, 6 h, dose level Low) was 9.8%, the WBC (100 mg/kg, 6 h, dose level Low) was 95.4 x10_2/uL and the KIDNEY_L (100 mg/kg, 6 h, dose level Low) was 0.9 g. For the same molecule, the KIDNEY_R (100 mg/kg, 6 h, dose level Low) was 0.9 g, the KIDNEY_TOTAL (100 mg/kg, 6 h, dose level Low) was 1.7 g and the LIVER (100 mg/kg, 6 h, dose level Low) was 7.8 g. The ALT [2] was 55.4 IU/L, the AST [2] was 84.6 IU/L and the BUN [2] was 8.2 mg/dL. For the same molecule, the CRE [2] was 0.1 mg/dL, the Ca [2] was 10.8 mg/dL and the Cl [2] was 105.4 meq/L. The DBIL [2] was 0.008 mg/dL, the GLC [2] was 168.4 mg/dL and the IP [2] was 10.2 mg/dL. For the same molecule, the K [2] was 4.2 meq/L, the LDH [2] was 71.8 IU/L and the Na [2] was 139.2 meq/L. The PL [2] was 124 mg/dL, the RALB [2] was 2.4 g/dL and the TBIL [2] was 0.046 mg/dL. For the same molecule, the TG [2] was 26.8 mg/dL, the TP [2] was 5 g/dL and the gamma-GTP [2] was 1.2 IU/L. For the same molecule, the TERMINAL_BW (100 mg/kg, 9 h, dose level Low) was 201.1 g, the APTT (100 mg/kg, 9 h, dose level Low) was 16.1 s and the Bas (100 mg/kg, 9 h, dose level Low) was 0%. The Eos (100 mg/kg, 9 h, dose level Low) was 1%, the Fbg (100 mg/kg, 9 h, dose level Low) was 233.4 mg/dL and the Hb (100 mg/kg, 9 h, dose level Low) was 13 g/dL. For the same molecule, the Ht (100 mg/kg, 9 h, dose level Low) was 38.8%, the Lym (100 mg/kg, 9 h, dose level Low) was 75.2% and the MCHC (100 mg/kg, 9 h, dose level Low) was 33.4%. It also gave an MCV (100 mg/kg, 9 h, dose level Low) of 64 fL, a Mono (100 mg/kg, 9 h, dose level Low) of 2.8% and a Neu (100 mg/kg, 9 h, dose level Low) of 20.4%. The PT (100 mg/kg, 9 h, dose level Low) was 12.6 s, the Plat (100 mg/kg, 9 h, dose level Low) was 114.4 x10_4/uL and the RBC (100 mg/kg, 9 h, dose level Low) was 607.4 x10_4/ul. The Ret (100 mg/kg, 9 h, dose level Low) was 9%, the WBC (100 mg/kg, 9 h, dose level Low) was 79.5 x10_2/uL and the KIDNEY_L (100 mg/kg, 9 h, dose level Low) was 0.9 g. The KIDNEY_R (100 mg/kg, 9 h, dose level Low) was 0.9 g, the KIDNEY_TOTAL (100 mg/kg, 9 h, dose level Low) was 1.8 g and the LIVER (100 mg/kg, 9 h, dose level Low) was 7.2 g. The ALP [3] was 1288.4 IU/L, the ALT [3] was 46.6 IU/L and the AST [3] was 75 IU/L. For the same molecule, the BUN [3] was 9.8 mg/dL, the CRE [3] was 0.1 mg/dL and the Ca [3] was 10.7 mg/dL. The Cl [3] was 105.4 meq/L, the DBIL [3] was 0.01 mg/dL and the GLC [3] was 166.4 mg/dL. The IP [3] was 10.2 mg/dL, the K [3] was 4.2 meq/L and the LDH [3] was 49 IU/L. It also gave a Na [3] of 140 meq/L, a PL [3] of 118.4 mg/dL and an RALB [3] of 2.5 g/dL. For the same molecule, the TBIL [3] was 0.044 mg/dL, the TG [3] was 30 mg/dL and the TP [3] was 5.1 g/dL. For the same molecule, the gamma-GTP [3] was 1 IU/L, the TERMINAL_BW [4] was 208.9 g and the APTT [4] was 16.6 s. The Bas [4] was 0%, the Eos [4] was 1% and the Fbg [4] was 242.6 mg/dL. For the same molecule, the Hb [4] was 13 g/dL, the Ht [4] was 38.6% and the Lym [4] was 75%. The MCHC [4] was 33.6%, the MCV [4] was 64.8 fL and the Mono [4] was 3.6%. The Neu [4] was 19.8%, the PT [4] was 12.4 s and the Plat [4] was 109.9 x10_4/uL. It also gave an RBC [4] of 596 x10_4/ul, a Ret [4] of 8.8% and a WBC [4] of 95.2 x10_2/uL. The KIDNEY_L [4] was 0.9 g, the KIDNEY_R [4] was 0.9 g and the KIDNEY_TOTAL [4] was 1.8 g. For the same molecule, the LIVER [4] was 10.1 g, the ALP [5] was 1691 IU/L and the ALT [5] was 51.6 IU/L. It also gave an AST [5] of 80.8 IU/L, a BUN [5] of 14.6 mg/dL and a CRE [5] of 0.2 mg/dL. It also gave a Ca [5] of 11.3 mg/dL, a Cl [5] of 105.2 meq/L and a DBIL [5] of 0.016 mg/dL. The GLC [5] was 173.6 mg/dL, the IP [5] was 8.5 mg/dL and the K [5] was 3.9 meq/L. The LDH [5] was 81 IU/L, the Na [5] was 142.6 meq/L and the PL [5] was 140 mg/dL. It also gave an RALB [5] of 2.6 g/dL, a TBIL [5] of 0.034 mg/dL and a TG [5] of 99 mg/dL. It also gave a TP [5] of 5.5 g/dL, a gamma-GTP [5] of 1.2 IU/L and a TERMINAL_BW [6] of 201.8 g. The APTT [6] was 15.4 s.
